Test results reported in US20210038579A1, “Treatment Of Patients With Classic Fabry Disease” (Amicus Therapeutics, Inc., priority 2018, published 2021).
Positions count from the first letter of the chain named. Where “and” joins values, the source holds several entries; their conditions need not be identical. Equal entries are not always repeated.

Assays:
Test in all cases: HEK assay: α-Gal A activity in HEK-293 cell lysate with migalastat
Assay type in all cases: cell-based
[1] = molecular target: T1, α-Gal A mutant form p.Asp322Glu (c.966 C > A) (Homo sapiens, UniProt P06280, D322E)
T1 construct: expressed in transfected cells; host or cells: HEK-293
T1 sequence (P06280 32-429 D322E): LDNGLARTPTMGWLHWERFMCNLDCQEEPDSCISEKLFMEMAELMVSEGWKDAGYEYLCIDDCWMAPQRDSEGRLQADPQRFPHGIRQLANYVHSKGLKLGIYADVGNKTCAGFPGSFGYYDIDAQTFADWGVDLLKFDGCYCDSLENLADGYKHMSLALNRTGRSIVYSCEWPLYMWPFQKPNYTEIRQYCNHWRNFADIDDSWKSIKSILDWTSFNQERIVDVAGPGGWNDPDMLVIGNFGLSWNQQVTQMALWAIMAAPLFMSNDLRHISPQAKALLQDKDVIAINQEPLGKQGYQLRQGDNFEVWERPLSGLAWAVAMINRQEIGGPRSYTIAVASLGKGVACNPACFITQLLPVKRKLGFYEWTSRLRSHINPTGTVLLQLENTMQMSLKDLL
In short: (§1)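 Mutant α-Gal A forms from cDNA constructs were transiently expressed in HEK-293 cells, then incubated with or without migalastat (17 nM to 1 mM) for 4 to 5 days. Enzyme levels in cell lysates were measured with the fluorogenic substrate 4-MU-α-Gal or by western blot.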

[2] = molecular target: T2, α-Gal A mutant form p.Gly183Asp (c.548 G > A) (Homo sapiens, UniProt P06280, G183D)
T2 construct: expressed in transfected cells; host or cells: HEK-293
T2 sequence (P06280 32-429 G183D): T1 sequence (P06280 32-429 D322E) with G152D, E291D
In short: as §1

[3] = molecular target: T3, α-Gal A mutant form p.Gly260Ala (c.779 G > C) (Homo sapiens, UniProt P06280, G260A)
T3 construct: expressed in transfected cells; host or cells: HEK-293
T3 sequence (P06280 32-429 G260A): T1 sequence (P06280 32-429 D322E) with G229A, E291D
In short: as §1

[4] = molecular target: T4, α-Gal A mutant form p.Gly271Ser; Asp313Tyr (c.811 G > A; c.937 G > T) (Homo sapiens, UniProt P06280, D313Y/G271S)
T4 construct: expressed in transfected cells; host or cells: HEK-293
T4 sequence (P06280 32-429 G271S/D313Y): T1 sequence (P06280 32-429 D322E) with G240S, D282Y, E291D
In short: as §1

[5] = molecular target: T5, α-Gal A mutant form p.Gly325Arg (c.973G > C) (Homo sapiens, UniProt P06280, G325R)
T5 construct: expressed in transfected cells; host or cells: HEK-293
T5 sequence (P06280 32-429 G325R): T1 sequence (P06280 32-429 D322E) with E291D, G294R
In short: as §1

[6] = +10 μM migalastat, HEK-293 cell lysate, mean ± SEM, n = 20
[7] = HEK293, 10 μM migalastat minus baseline, read-out: Absolute increase at 10 μM (% WT)

OC[C@H]1NC[C@H](O)[C@@H](O)[C@H]1O [migalastat]
α-Gal A activity at 10 μM (fold over baseline) ([1]; 10 μM migalastat): 3.98 fold over baseline | +Migalastat α-Gal A activity [1, 6]: 9554 ± 667 nmol/mg/h | +Migalastat α-Gal A activity % WT [1, 6]: 26.8 ± 1.3 % WT | activation at 10 µM [1, 7]: 20% | α-Gal A activity at 10 μM (fold over baseline) ([2]; 10 μM migalastat): 29.31 fold over baseline | +Migalastat α-Gal A activity [2, 6]: 6074 ± 212 nmol/mg/h | +Migalastat α-Gal A activity % WT [2, 6]: 19.1 ± 1.0 % WT and 19.1 ± 10 % WT | activation at 10 µM [2, 7]: 18.4% | α-Gal A activity at 10 μM (fold over baseline) ([3]; 10 μM migalastat): 4.84 fold over baseline | +Migalastat α-Gal A activity [3, 6]: 10749 ± 403 nmol/mg/h | +Migalastat α-Gal A activity % WT [3, 6]: 37.4 ± 3.1 % WT | activation at 10 µM [3, 7]: 29.9% | Absolute increase at 10 μM (% WT) ([4]; 10 μM migalastat minus baseline): 3.0 % WT | +Migalastat α-Gal A activity [4, 6]: 877 ± 18 nmol/mg/h | +Migalastat α-Gal A activity % WT [4, 6]: 3.0 ± 0.2 % WT | α-Gal A activity at 10 μM (fold over baseline) ([5]; 10 μM migalastat): 10.17 fold over baseline | +Migalastat α-Gal A activity [5, 6]: 9244 ± 417 nmol/mg/h | +Migalastat α-Gal A activity % WT [5, 6]: 26.6 ± 1.4 % WT | activation at 10 µM [5, 7]: 24%
